Article PMC9569529, “Safe and Efficient Sigma1 Ligand: A Potential Drug Candidate for Multiple Sclerosis” (International Journal of Molecular Sciences, 2022)
≈ marks a conversion by molar mass, not a printed value. Read-outs that look alike come from different tables or passages of the source.

Key:
[1] = Bidirectional permeability in Caco-2 (pH 6.5/7.4); type: in vitro ADME, human; details: human; for Papp A→B at 10 µM: Caco-2, pH 6.5, Caco-2, 10 µM, read-out: Permeability A/B pH6.5/7.4; for efflux ratio at 10 µM: Caco-2, pH 6.5, Papp(B-A)/Papp(A-B), pH 6.5/7.4, read-out: e-ratio (efflux ratio); for Papp B→A at 10 µM: pH 6.5, Caco-2, 10 µM, read-out: Permeability B/A pH6.5/7.4
Procedure: (§1) The compound was classically evaluated at 10 µM for all the ADME analyses. Bidirectional permeability (apical A to basolateral B pH 6.5/7.4 and basolateral B to apical A pH 7.4/6.5) was assessed in the epithelial colorectal adenocarcinoma cell line (Caco-2 cell line). Results were expressed as × 10^−6cm/s (Papp) and as % recovery. Efflux ratio, i.e., Papp(B-A)/Papp(A-B), was calculated. Plasma protein binding was analyzed by HPLC-MS/MS after 4-h incubation at 37 °C, as described by Banker et al.. Concentration was evaluated by LC/MS-MS. CYP inhibition was performed in human liver microsomes as described in [61]. Analysis of the respective metabolites. was performed by HPLC-MS/MS. Transporter inhibition analysis was also performed in overexpressing cell lines. Respective metabolites for each specific transporter substrate were analyzed by fluorometry or scintillation counting and % inhibition of control values were calculated. P-glycoprotein transporter substrate assessment was performed by bidirectional permeability analysis (apical A to basolateral B pH 7.4/7.4 and basolateral B to apical A pH 7.4/7.4) in the Caco-2 cell line with and without verapamil, as described in [59]. Results were expressed as ×10^−6 cm/s (Papp) and as % recovery. The efflux ratio, i.e., Papp(B-A)/Papp(A-B), was calculated. CYP450 induction characterization was performed on human hepatocytes. The mRNA levels of 7 different CYPs were analyzed by qPCR, as described in [72]. The compound was evaluated at 1, 10 and 100 µM. Fold-induction values were determined and compared to cut-off values, as defined for each CYP isozyme in each hepatocyte lot.

CYP3A = experiment: CYP inhibition in human liver microsomes; type: in vitro ADME; details: read-out: CYPs inhibition CYP3A
Procedure: as §1

CYP2D6 = molecular target: T1, CYP2D6 (Homo sapiens, UniProt P10635); experiment: CYP inhibition in human liver microsomes; type: in vitro ADME; details: read-out: CYPs inhibition CYP2D6
T1 construct: tissue Eurofins Cerep (CRO); host or cells: human liver microsomes
Procedure: as §1

CYP2C8 = molecular target: T2, CYP2C8 (Homo sapiens, UniProt P10632); experiment: CYP inhibition in human liver microsomes; type: in vitro ADME; details: read-out: CYPs inhibition CYP2C8
T2 construct: tissue Eurofins Cerep (CRO); host or cells: human liver microsomes
Procedure: as §1

CYP1A = molecular target: T3, CYP1A (Homo sapiens, UniProt P05177); experiment: CYP inhibition in human liver microsomes; type: in vitro ADME; details: read-out: CYPs inhibition CYP1A
T3 construct: tissue Eurofins Cerep (CRO); host or cells: human liver microsomes
Procedure: as §1

CYP2C19 = molecular target: T4, CYP2C19 (Homo sapiens, UniProt P33261); experiment: CYP inhibition in human liver microsomes; type: in vitro ADME; details: read-out: CYPs inhibition CYP2C19
T4 construct: tissue Eurofins Cerep (CRO); host or cells: human liver microsomes
Procedure: as §1

CYP2B6 = molecular target: T5, CYP2B6 (Homo sapiens, UniProt P20813); experiment: CYP inhibition in human liver microsomes; type: in vitro ADME; details: read-out: CYPs inhibition CYP2B6
T5 construct: tissue Eurofins Cerep (CRO); host or cells: human liver microsomes
Procedure: as §1

CYP2C9 = molecular target: T6, CYP2C9 (Homo sapiens, UniProt P11712); experiment: CYP inhibition in human liver microsomes; type: in vitro ADME; details: read-out: CYPs inhibition CYP2C9
T6 construct: tissue Eurofins Cerep (CRO); host or cells: human liver microsomes
Procedure: as §1

[2] = Solubility, shake-flask method; type: physicochemical; details: thermodynamic from solid
Procedure: Standardized in vitro ADME experiments were performed by Eurofins Cerep (Poitiers, France). Solubility assays were performed in PBS at pH 7.4, but also in simulated gastric fluid (SGF) and intestinal fluid (SIF), through the classical shake-flask method according to Lipinski et al. using HPLC-UV/VIS technology. Results were expressed in µM.

OAT3 = OAT3 (Homo sapiens, UniProt Q8TCC7); experiment: Drug transporter inhibition (SLC family); type: in vitro ADME; details: transporter-overexpressing cell lines, read-out: Drug transporters inhibition OAT3
Procedure: as §1

OCT2 = OCT2 (Homo sapiens, UniProt O15244); experiment: Drug transporter inhibition (SLC family); type: in vitro ADME; details: transporter-overexpressing cell lines, read-out: Drug transporters inhibition OCT2
Procedure: as §1

ABST = ABST (Homo sapiens, UniProt Q12908); experiment: Drug transporter inhibition (SLC family); type: in vitro ADME; details: read-out: Drug transporters inhibition ABST
Procedure: as §1

OAT1 = OAT1 (Homo sapiens, UniProt Q4U2R8); experiment: Drug transporter inhibition (SLC family); type: in vitro ADME; details: transporter-overexpressing cell lines, read-out: Drug transporters inhibition OAT1
Procedure: as §1

NTCP = NTCP (Homo sapiens, UniProt Q14973); experiment: Drug transporter inhibition (SLC family); type: in vitro ADME; details: read-out: Drug transporters inhibition NTCP
Procedure: as §1

OATP1B3 = OATP1B3 (Homo sapiens, UniProt Q9NPD5); experiment: Drug transporter inhibition (SLC family); type: in vitro ADME; details: transporter-overexpressing cell lines, read-out: Drug transporters inhibition OATP1B3
Procedure: as §1

OCT1 = OCT1 (Homo sapiens, UniProt O15245); experiment: Drug transporter inhibition (SLC family); type: in vitro ADME; details: transporter-overexpressing cell lines, read-out: Drug transporters inhibition OCT1
Procedure: as §1

S1R–BiP complex = experiment: S1R-BiP dissociation assay in CHO cells (co-IP, ELISA); type: cell-based
Procedure: The activity of compound 7i was evaluated in regard to its ability to dissociate the S1R–BiP complex. The S1R–BiP dissociation assay was performed by Amylgen (Montferrier-sur-Lez, France) as described in [13, 79]. Briefly, CHO cells were treated with test compounds for 30 min (37 °C). Crosslinking was performed with dithiobis succinimidyl propionate (DSP; Thermoscientific, Waltham, MA, USA). Lysis was performed after incubation for 15 min on ice. After centrifugation, supernatants were incubated overnight (4 °C) with the S1R antibody (Abcam, Cambridge, UK). Lysates were incubated with Sepharose Protein-A (Invitrogen). After the first centrifugation, the pellet was resuspended in radioimmunoprecipitation assay (RIPA) buffer. After a second centrifugation, the pellet was resuspended in 2× sample buffer/bMCE buffer. After the third centrifugation, supernatants were analyzed for BiP immunoreactivity (SEC343Mu ELISA, USCNK Life Sciences, Wuhan, China).

SH-SY5Y = system: SH-SY5Y; parameters: method as in PMID 28756263; details: cited from earlier work
[3] = PBS pH 7.4, pH 7.4, aqueous buffer, read-out: Solubility PBS pH7.4
[4] = simulated gastric fluid (SGF), simulated gastric fluid, read-out: Solubility SGF
[5] = simulated intestinal fluid (SIF), fassgf or other biorelevant, read-out: Solubility SIF

T4 sequence (P33261 whole entry): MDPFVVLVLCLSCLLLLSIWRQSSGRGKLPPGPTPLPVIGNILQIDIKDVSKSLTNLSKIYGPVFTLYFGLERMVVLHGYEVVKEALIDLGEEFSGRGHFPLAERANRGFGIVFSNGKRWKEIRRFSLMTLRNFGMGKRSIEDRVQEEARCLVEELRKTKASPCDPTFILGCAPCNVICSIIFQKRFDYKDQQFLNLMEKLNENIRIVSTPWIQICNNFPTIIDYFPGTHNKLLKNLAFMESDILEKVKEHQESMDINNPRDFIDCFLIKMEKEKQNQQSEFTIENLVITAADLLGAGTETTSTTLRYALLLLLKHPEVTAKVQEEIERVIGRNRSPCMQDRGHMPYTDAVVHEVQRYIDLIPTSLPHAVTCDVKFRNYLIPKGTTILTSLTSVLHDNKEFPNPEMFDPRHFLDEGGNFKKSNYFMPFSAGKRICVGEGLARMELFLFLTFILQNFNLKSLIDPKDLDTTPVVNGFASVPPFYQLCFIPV
T1 sequence (P10635 whole entry): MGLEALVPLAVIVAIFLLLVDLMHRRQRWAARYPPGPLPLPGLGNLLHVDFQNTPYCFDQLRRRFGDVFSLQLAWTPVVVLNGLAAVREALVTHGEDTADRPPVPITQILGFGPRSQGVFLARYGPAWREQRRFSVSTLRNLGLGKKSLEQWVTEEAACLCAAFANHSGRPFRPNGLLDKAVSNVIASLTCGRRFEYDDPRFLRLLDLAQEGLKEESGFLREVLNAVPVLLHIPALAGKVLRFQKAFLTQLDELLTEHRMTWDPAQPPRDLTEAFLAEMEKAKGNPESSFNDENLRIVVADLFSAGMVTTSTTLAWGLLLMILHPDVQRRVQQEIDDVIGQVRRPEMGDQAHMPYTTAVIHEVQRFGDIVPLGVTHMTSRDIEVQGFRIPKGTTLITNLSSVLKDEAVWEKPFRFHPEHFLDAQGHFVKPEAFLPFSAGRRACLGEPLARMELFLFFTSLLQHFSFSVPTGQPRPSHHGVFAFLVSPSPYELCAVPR
Sequence of OATP1B3 (Q9NPD5 whole entry): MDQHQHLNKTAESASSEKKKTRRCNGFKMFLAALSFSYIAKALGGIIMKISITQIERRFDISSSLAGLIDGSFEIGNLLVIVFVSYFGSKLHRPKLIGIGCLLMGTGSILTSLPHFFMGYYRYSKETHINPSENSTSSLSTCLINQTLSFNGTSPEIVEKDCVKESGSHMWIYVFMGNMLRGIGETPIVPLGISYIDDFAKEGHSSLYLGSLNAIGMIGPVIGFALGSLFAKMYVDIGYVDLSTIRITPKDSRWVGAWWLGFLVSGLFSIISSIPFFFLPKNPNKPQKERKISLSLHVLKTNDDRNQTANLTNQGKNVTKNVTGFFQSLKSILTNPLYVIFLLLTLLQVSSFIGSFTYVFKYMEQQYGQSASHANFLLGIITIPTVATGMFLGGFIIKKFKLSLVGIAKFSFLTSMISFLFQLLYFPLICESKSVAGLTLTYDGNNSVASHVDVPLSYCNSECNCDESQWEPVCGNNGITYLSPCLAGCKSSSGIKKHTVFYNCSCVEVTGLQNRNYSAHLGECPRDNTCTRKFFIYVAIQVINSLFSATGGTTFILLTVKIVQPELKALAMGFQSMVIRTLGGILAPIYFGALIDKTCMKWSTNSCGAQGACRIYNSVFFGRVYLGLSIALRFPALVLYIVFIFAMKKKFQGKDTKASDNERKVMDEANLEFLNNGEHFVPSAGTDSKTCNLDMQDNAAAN
Sequence of NTCP (Q14973 whole entry): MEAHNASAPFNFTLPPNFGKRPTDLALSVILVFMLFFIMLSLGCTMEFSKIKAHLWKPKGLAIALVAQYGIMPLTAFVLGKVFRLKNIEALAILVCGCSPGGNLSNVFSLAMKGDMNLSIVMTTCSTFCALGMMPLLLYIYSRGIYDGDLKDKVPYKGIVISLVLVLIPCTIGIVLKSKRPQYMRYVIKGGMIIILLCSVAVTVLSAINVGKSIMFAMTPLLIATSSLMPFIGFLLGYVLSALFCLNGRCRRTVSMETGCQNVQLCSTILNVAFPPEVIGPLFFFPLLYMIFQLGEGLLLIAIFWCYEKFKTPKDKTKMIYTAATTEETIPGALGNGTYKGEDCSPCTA
Sequence of OCT1 (O15245 whole entry): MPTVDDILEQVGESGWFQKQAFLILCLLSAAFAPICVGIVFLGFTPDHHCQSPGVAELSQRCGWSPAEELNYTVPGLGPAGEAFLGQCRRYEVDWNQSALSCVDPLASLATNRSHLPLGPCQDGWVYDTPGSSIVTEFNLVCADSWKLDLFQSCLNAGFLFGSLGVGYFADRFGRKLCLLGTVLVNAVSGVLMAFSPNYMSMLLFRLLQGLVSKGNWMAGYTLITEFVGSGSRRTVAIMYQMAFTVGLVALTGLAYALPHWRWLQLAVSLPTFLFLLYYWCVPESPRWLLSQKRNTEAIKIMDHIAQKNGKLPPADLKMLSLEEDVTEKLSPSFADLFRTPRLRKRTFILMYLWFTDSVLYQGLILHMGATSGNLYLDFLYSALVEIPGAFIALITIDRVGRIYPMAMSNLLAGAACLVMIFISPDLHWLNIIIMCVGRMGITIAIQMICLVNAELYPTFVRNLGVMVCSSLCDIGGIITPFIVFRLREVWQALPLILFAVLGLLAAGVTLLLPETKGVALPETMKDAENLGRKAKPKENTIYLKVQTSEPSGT
Sequence of OAT1 (Q4U2R8 whole entry): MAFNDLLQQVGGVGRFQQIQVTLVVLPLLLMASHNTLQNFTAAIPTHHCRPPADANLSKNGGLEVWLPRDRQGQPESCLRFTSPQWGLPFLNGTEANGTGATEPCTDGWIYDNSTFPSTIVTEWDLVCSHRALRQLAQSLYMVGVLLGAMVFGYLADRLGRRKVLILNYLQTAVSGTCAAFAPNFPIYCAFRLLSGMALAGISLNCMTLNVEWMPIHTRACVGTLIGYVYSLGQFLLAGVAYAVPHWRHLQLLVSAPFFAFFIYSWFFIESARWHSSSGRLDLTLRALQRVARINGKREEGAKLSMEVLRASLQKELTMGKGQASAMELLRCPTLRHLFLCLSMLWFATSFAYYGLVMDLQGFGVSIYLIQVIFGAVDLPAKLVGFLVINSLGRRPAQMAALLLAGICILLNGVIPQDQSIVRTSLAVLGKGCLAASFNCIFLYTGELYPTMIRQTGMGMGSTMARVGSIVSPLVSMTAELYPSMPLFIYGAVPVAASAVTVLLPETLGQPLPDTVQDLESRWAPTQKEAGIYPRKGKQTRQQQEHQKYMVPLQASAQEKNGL
Sequence of OAT3 (Q8TCC7 whole entry): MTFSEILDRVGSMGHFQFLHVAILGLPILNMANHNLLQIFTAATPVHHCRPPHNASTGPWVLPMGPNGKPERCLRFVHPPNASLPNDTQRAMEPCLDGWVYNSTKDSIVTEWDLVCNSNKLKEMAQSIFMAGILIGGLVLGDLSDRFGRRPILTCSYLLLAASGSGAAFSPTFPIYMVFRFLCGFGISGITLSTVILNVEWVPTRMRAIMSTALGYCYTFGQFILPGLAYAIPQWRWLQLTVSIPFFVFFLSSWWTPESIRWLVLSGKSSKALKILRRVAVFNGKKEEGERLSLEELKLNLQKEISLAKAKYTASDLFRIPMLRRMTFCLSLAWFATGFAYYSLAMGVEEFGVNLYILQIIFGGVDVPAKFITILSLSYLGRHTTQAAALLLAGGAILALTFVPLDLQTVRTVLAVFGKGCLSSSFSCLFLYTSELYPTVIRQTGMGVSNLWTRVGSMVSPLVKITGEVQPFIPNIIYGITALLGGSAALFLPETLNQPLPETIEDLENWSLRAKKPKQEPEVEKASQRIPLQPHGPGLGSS
T5 sequence (P20813 whole entry): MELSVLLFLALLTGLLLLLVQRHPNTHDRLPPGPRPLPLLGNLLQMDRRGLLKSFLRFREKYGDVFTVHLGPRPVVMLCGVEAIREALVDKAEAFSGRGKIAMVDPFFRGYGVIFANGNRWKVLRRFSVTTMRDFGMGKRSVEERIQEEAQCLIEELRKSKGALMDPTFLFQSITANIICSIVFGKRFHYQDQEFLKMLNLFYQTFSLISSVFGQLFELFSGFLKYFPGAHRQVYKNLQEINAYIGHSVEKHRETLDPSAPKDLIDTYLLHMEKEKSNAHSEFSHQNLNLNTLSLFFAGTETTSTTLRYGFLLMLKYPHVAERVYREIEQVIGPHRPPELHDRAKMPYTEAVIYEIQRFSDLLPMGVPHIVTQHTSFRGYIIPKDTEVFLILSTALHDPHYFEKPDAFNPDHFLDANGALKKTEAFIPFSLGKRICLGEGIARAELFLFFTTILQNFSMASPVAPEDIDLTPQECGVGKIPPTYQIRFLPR
T2 sequence (P10632 whole entry): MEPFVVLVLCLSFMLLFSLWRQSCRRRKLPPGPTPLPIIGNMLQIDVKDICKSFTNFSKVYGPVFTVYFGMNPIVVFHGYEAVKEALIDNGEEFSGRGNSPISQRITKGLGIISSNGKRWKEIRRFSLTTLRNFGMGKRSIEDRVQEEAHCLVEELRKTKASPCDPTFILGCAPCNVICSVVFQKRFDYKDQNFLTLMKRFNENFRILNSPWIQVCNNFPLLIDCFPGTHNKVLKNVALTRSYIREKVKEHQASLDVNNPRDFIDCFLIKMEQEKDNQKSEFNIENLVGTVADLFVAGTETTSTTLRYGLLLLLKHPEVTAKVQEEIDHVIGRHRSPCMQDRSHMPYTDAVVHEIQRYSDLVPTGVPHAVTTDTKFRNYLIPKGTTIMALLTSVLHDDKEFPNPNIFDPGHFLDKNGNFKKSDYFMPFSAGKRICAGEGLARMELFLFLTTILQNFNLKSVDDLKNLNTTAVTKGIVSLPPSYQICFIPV

| Structure (SMILES) | Papp A→B at 10 µM [1] [×10⁻⁶ cm/s] | efflux ratio at 10 µM [1] | Papp B→A at 10 µM [1] [×10⁻⁶ cm/s] | inhibition at 10 µM (CYP3A) [%] | inhibition at 10 µM (CYP2D6) [%] | inhibition at 10 µM (CYP2C8) [%] | inhibition at 10 µM (CYP1A) [%] | inhibition at 10 µM (CYP2C19) [%] | inhibition at 10 µM (CYP2B6) [%] | inhibition at 10 µM (CYP2C9) [%] | solubility [2, 3] [µM] | solubility [2, 4] [µM] | solubility [2, 5] [µM] | inhibition at 10 µM (OAT3) [%] | inhibition at 10 µM (OCT2) [%] | inhibition at 10 µM (ABST) [%] | inhibition at 10 µM (OAT1) [%] | inhibition at 10 µM (NTCP) [%] | inhibition at 10 µM (OATP1B3) [%] | inhibition at 10 µM (OCT1) [%] | other results |
| --- | --- | --- | --- | --- | --- | --- | --- | --- | --- | --- | --- | --- | --- | --- | --- | --- | --- | --- | --- | --- | --- |
| O=C(NCCCNCc1ccccc1)c1ccc(Cl)cc1 [compound 7i-deMe] | 31.1 | 1.7 | 51.5 | 3.2 | 91.6 | -7.2 | 9.4 | 18.4 | 15.9 | 5.9 | 187 (≈ 56.6 µg/mL) | 197 (≈ 59.7 µg/mL) | 196 (≈ 59.3 µg/mL) | 18.7 | 85.8 | 5 | -6.2 | 8.7 | 19.1 | 64.6 |  |
| CN(CCCNC(=O)c1ccc(Cl)cc1)Cc1ccccc1 [compound 7i] | ≤ 20 | ~2 | 66.1 | 36.9 | 95.1 | -9.2 | 2.1 | 36.5 | -4.3 | -7.2 | 185 (≈ 58.6 µg/mL) | 193 (≈ 61.1 µg/mL) | 188 (≈ 59.6 µg/mL) | 34.3 | 49.4 | 5.3 | -9.6 | -1.7 | 23.1 | 41.2 | effect on S1R–BiP association (S1R–BiP complex; 1 and 10 µM, 30-min incubation): significantly causes a dose-dependent dissociation; S1R functional activity (S1R–BiP complex; S1R–BiP dissociation blocked by NE-100): agonist capacity; effect on S1R–BiP dissociation in presence of NE-100 (S1R–BiP complex; co-treatment with NE-100 (10 µM)): blocked; S1R antagonist capacity (co-treatment with PRE-084) (S1R–BiP complex; co-treatment with PRE-084 (10 µM)): absence of antagonist capacity; Inhibition SH-SY5Y (% at 100 µM) (SH-SY5Y; 100 µM): 28%; cytotoxicity (SH-SY5Y): no cytotoxicity |
